Measured values reported in ChEMBL document CHEMBL1201862, “PubChem BioAssay data set” (2004).
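Grown in 96-well plates, cells were treated for 48 hours with each compound at five concentrations. Insufficient inhibition: endpoint recorded as highest concentration tested. GI50: concentration for 50% inhibition of growth.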 Calls of active or inactive are those of the source. Rule as the data show it: active = GI50 up to about 1.1 µM and inactive = higher.

Legend:
Test in all cases: NCI-60 cell line screen, 48 h
SNB-19 = system: SNB-19
HL-60 = system: HL-60
HCT-116 = system: HCT-116
A498 = system: A498
786-0 = system: 786-0
Malme-3M = system: Malme-3M
HOP-92 = system: HOP-92
RXF 393 = system: RXF 393
CCRF-CEM = system: CCRF-CEM
HOP-62 = system: HOP-62
SR = system: SR
NCI-H460 = system: NCI-H460
OVCAR-3 = system: OVCAR-3

Row | Compound | GI50 (SNB-19) | GI50 (HL-60) | GI50 (HCT-116) | GI50 (A498) | GI50 (786-0) | GI50 (Malme-3M) | GI50 (HOP-92) | GI50 (RXF 393) | GI50 (CCRF-CEM) | GI50 (HOP-62) | GI50 (SR) | GI50 (NCI-H460) | GI50 (OVCAR-3)
1 | O=C1C2ON3c4ccccc4C(=O)C3(c3ccccc3)C2C(=O)N1c1ccccc1 (stereo not drawn) | > 100 µM (inactive) | > 100 µM (inactive) | > 100 µM (inactive) | > 100 µM (inactive) | > 100 µM (inactive) | > 100 µM (inactive) | > 100 µM (inactive) | > 100 µM (inactive) | > 100 µM (inactive) | > 100 µM (inactive) | > 100 µM (inactive) | – | –
2 | CC[n+]1c(/C=C/c2cc(C(=O)OC)n3c2sc2ccccc23)sc2ccccc21 | – | 13.9 µM (inactive) | 14.5 µM (inactive) | – | 19.1 µM (inactive) | 16.7 µM (inactive) | 15.5 µM (inactive) | – | 0.214 µM (active) | 0.434 µM (active) | > 10 µM (inactive) | 16.2 µM (inactive) | 20.3 µM (inactive)
3 | O=c1ccccc2cccc(O)c12 | > 100 µM (inactive) | > 100 µM (inactive) | > 100 µM (inactive) | > 100 µM (inactive) | > 100 µM (inactive) | – | 84.1 µM (inactive) | > 100 µM (inactive) | > 100 µM (inactive) | > 100 µM (inactive) | – | > 100 µM (inactive) | > 100 µM (inactive)
4 | C=CC1=C(C)/C(=C/C2=NC(=C\c3[nH]c(CC4NC(=O)C(C)/C4=C\C)c(C)c3CCC(=O)O)/C(CC(=O)O)=C2C)NC1=O (stereo not drawn) | > 100 µM (inactive) | > 100 µM (inactive) | > 100 µM (inactive) | – | > 100 µM (inactive) | > 100 µM (inactive) | 70 µM (inactive) | > 100 µM (inactive) | > 100 µM (inactive) | > 100 µM (inactive) | > 100 µM (inactive) | > 100 µM (inactive) | > 100 µM (inactive)
5 | COc1cc(C2C(Cl)C(=O)N2NC(=O)c2ccc(N)cc2)ccc1O (stereo not drawn) | 25.3 µM (inactive) | 27.9 µM (inactive) | 22.9 µM (inactive) | > 100 µM (inactive) | 19.1 µM (inactive) | 16.5 µM (inactive) | 25.5 µM (inactive) | – | 18.5 µM (inactive) | 35.9 µM (inactive) | – | 22.9 µM (inactive) | 16.6 µM (inactive)
6 | Cc1ccc(NC(=O)/C(=N/NC(=O)C[N+](C)(C)C)c2nc3ccccc3nc2O)cc1 | > 100 µM (inactive) | – | > 100 µM (inactive) | > 100 µM (inactive) | > 100 µM (inactive) | > 100 µM (inactive) | > 100 µM (inactive) | > 100 µM (inactive) | – | > 100 µM (inactive) | > 100 µM (inactive) | > 100 µM (inactive) | > 100 µM (inactive)
7 | COC(=O)[C@]12CSCN1C(=O)C(C(C)=O)=NN2C(=O)[C@](OC)(c1ccccc1)C(F)(F)F | > 100 µM (inactive) | > 10 µM (inactive) | > 100 µM (inactive) | – | > 100 µM (inactive) | > 100 µM (inactive) | – | 90.6 µM (inactive) | > 10 µM (inactive) | > 100 µM (inactive) | > 10 µM (inactive) | > 100 µM (inactive) | > 100 µM (inactive)
8 | Cc1cc2c(c(C(N)=O)c1C)-c1cccc(Cl)c1C2=O | 64.1 µM (inactive) | > 100 µM (inactive) | > 100 µM (inactive) | > 100 µM (inactive) | > 100 µM (inactive) | > 100 µM (inactive) | > 100 µM (inactive) | – | > 100 µM (inactive) | > 100 µM (inactive) | – | > 100 µM (inactive) | > 100 µM (inactive)
9 | O=C(Nc1ccc(Cl)cc1)/C(Cc1cccc[n+]1[O-])=N\Nc1ccc([N+](=O)[O-])cc1[N+](=O)[O-] | > 100 µM (inactive) | > 100 µM (inactive) | > 100 µM (inactive) | > 100 µM (inactive) | > 100 µM (inactive) | > 100 µM (inactive) | > 100 µM (inactive) | > 100 µM (inactive) | > 100 µM (inactive) | > 100 µM (inactive) | – | > 100 µM (inactive) | > 100 µM (inactive)
10 | COc1ccc(OCC(=O)O)c2c1CCC(C)C2=O (stereo not drawn) | > 100 µM (inactive) | > 100 µM (inactive) | > 100 µM (inactive) | > 100 µM (inactive) | > 100 µM (inactive) | > 100 µM (inactive) | – | – | > 100 µM (inactive) | > 100 µM (inactive) | – | > 100 µM (inactive) | > 100 µM (inactive)
11 | CCOC(=O)C(=O)Nc1c(N(CC)CC)n2ccccc2nc1=O | > 100 µM (inactive) | – | > 100 µM (inactive) | > 100 µM (inactive) | > 100 µM (inactive) | > 100 µM (inactive) | > 100 µM (inactive) | – | > 100 µM (inactive) | > 100 µM (inactive) | > 100 µM (inactive) | > 100 µM (inactive) | > 100 µM (inactive)
12 | On1c(-c2ccccc2)c(-c2ccccc2N2CCCC2)c2ccccc21 | > 100 µM (inactive) | > 100 µM (inactive) | > 100 µM (inactive) | > 100 µM (inactive) | > 100 µM (inactive) | > 100 µM (inactive) | > 100 µM (inactive) | – | > 100 µM (inactive) | > 100 µM (inactive) | > 100 µM (inactive) | > 100 µM (inactive) | > 100 µM (inactive)
13 | CN(C)c1ccc(/C=N/C23CC4CC(CC(C4)C2)C3)cc1 | > 100 µM (inactive) | > 100 µM (inactive) | > 100 µM (inactive) | > 100 µM (inactive) | > 100 µM (inactive) | > 100 µM (inactive) | – | > 100 µM (inactive) | > 100 µM (inactive) | > 100 µM (inactive) | > 100 µM (inactive) | > 100 µM (inactive) | > 100 µM (inactive)
14 | Cc1ccc(NC(=O)CC2C(=O)Nc3ccccc3S2(=O)=O)cc1C (stereo not drawn) | > 100 µM (inactive) | > 100 µM (inactive) | > 100 µM (inactive) | > 100 µM (inactive) | > 100 µM (inactive) | > 100 µM (inactive) | > 100 µM (inactive) | > 100 µM (inactive) | > 100 µM (inactive) | – | > 100 µM (inactive) | > 100 µM (inactive) | > 100 µM (inactive)
15 | O=c1ccn([C@H]2CSC[C@@H](CO)C2)c(=O)[nH]1 | > 100 µM (inactive) | > 100 µM (inactive) | > 100 µM (inactive) | > 100 µM (inactive) | > 100 µM (inactive) | > 100 µM (inactive) | > 100 µM (inactive) | – | > 100 µM (inactive) | > 100 µM (inactive) | – | > 100 µM (inactive) | > 100 µM (inactive)
16 | Cc1c(-c2nnc(-c3ccccc3)o2)c(=O)n(-c2ccccc2)n1C | > 100 µM (inactive) | > 100 µM (inactive) | > 100 µM (inactive) | > 100 µM (inactive) | > 100 µM (inactive) | > 100 µM (inactive) | > 100 µM (inactive) | > 100 µM (inactive) | > 100 µM (inactive) | > 100 µM (inactive) | > 100 µM (inactive) | > 100 µM (inactive) | > 100 µM (inactive)
17 | CC(=O)OCC1OC(Sc2ccccn2)C=CC1OC(C)=O (stereo not drawn) | > 100 µM (inactive) | > 100 µM (inactive) | > 100 µM (inactive) | > 100 µM (inactive) | > 100 µM (inactive) | > 100 µM (inactive) | > 100 µM (inactive) | > 100 µM (inactive) | > 100 µM (inactive) | > 100 µM (inactive) | > 100 µM (inactive) | – | > 100 µM (inactive)
18 | Brc1ccc(N2C[N+](c3ccc(Br)cc3)=NC(c3ccccc3)=N2)cc1.[O-][Cl+3]([O-])([O-])[O-] | > 100 µM (inactive) | 30.3 µM (inactive) | 49.2 µM (inactive) | > 100 µM (inactive) | > 100 µM (inactive) | > 100 µM (inactive) | 77.1 µM (inactive) | > 100 µM (inactive) | – | 74.1 µM (inactive) | – | > 100 µM (inactive) | –
19 | COC(=O)/C(=C/c1ccc(OC)cc1)C(C(=O)O)=C1CCCCC1 | > 100 µM (inactive) | > 100 µM (inactive) | > 100 µM (inactive) | > 100 µM (inactive) | > 100 µM (inactive) | – | > 100 µM (inactive) | > 100 µM (inactive) | > 100 µM (inactive) | > 100 µM (inactive) | > 100 µM (inactive) | > 100 µM (inactive) | –
20 | CN1C2(c3ccccc3)c3c(-c4ccccc4)sc(-c4ccccc4)c3C1(c1ccccc1)C1C(=O)N(c3ccccc3)C(=O)C12 (stereo not drawn) | > 100 µM (inactive) | > 100 µM (inactive) | > 100 µM (inactive) | > 100 µM (inactive) | > 100 µM (inactive) | > 100 µM (inactive) | > 100 µM (inactive) | > 100 µM (inactive) | > 100 µM (inactive) | > 100 µM (inactive) | – | > 100 µM (inactive) | > 100 µM (inactive)
21 | Cc1cc(N)c(C)c2c1[nH]c1ccc(O)cc12 | > 100 µM (inactive) | 79.3 µM (inactive) | > 100 µM (inactive) | – | 91.8 µM (inactive) | > 100 µM (inactive) | – | – | 20.7 µM (inactive) | > 100 µM (inactive) | 45 µM (inactive) | > 100 µM (inactive) | 50.6 µM (inactive)
22 | CN(C)/C=N\c1cc[nH]c(=O)n1 | – | > 100 µM (inactive) | > 100 µM (inactive) | > 100 µM (inactive) | > 100 µM (inactive) | > 100 µM (inactive) | > 100 µM (inactive) | > 100 µM (inactive) | > 100 µM (inactive) | > 100 µM (inactive) | – | > 100 µM (inactive) | > 100 µM (inactive)
23 | CC(=O)O[C@H]1C(=O)[C@@]2(C)C(C(OC(=O)c3ccccc3)[C@]3(O)CC(OC(=O)C(O)C(NC(=O)c4ccc(C)cc4)c4ccccc4)C(C)=C1C3(C)C)[C@]1(OC(C)=O)CO[C@@H]1C[C@@H]2O (stereo partly drawn) | 0.00771 µM (active) | < 0.0025 µM (active) | < 0.0025 µM (active) | 0.00596 µM (active) | 0.0074 µM (active) | 0.0043 µM (active) | – | 0.00628 µM (active) | 0.00365 µM (active) | 0.00986 µM (active) | – | < 0.0025 µM (active) | < 0.0025 µM (active)
